# Patent US8232101B2, “Identification of antigenic peptides from multiple myeloma cells” (Janssen Pharmaceutica N.V., priority 2009, dated 2012)
# Experiments:
# [1] = tested on: T2 cells loaded with individual peptides; experiment: 51Cr Release Assay for activity of CTL generated with peptide-loaded Drosophila aAPC; assay type: cell-based, human; set-up: key to CTL Activity: Strong (S); Median (M); Weak (W); None (N); conditions: for Ability to induce CTL in normal donors: truncated and computer predicted peptides; for Induction of CTL in two normal donors: Donor 1 and Donor 2, FIG. 3 and FIG. 4; for CTL Activities Median: number of donors that elicited Median activity over total number of donors; for CTL Activities Median / CTL Activities Strong / CTL Activities Weak / CTL Activities None: T2 targets loaded with individual peptide; for CTL Activities Strong: number of donors that elicited Strong activity over total number of donors; for CTL Activities Weak: number of donors that elicited Weak activity over total number of donors; for CTL Activities None: number of donors that elicited no activity over total number of donors
# Protocol: Drosophila aAPC were generated from Schneider S2 cells (S2 cells), which were originally established in 1969 from several hundred Oregon-R (wild type) Drosophila melanogaster (Oregon-R) embryos (American Type Culture Collection (ATCC) CRL-1963) according to published procedures (Schneider, J. Embryol. Exp. Morph. 1972 Vol 27, pp. 353-365), and deposited in the ATCC(CRL10974). S2 cells are grown in commercial Schneider's Drosophila medium supplemented with 10% heat-inactivated fetal bovine serum. In order to generate aAPCs, human complementary DNAs (cDNAs) for HLA-A2.1, B7.1, LFA-3, ICAM-1 and CD70, were individually inserted into the pRmHa-3 vector and S2 cells were transfected using the calcium phosphate precipitation method with a mixture of HLA-A2.1, B7.1, LFA-3, ICAM-1 and CD70 plasmid DNAs (for aAPC clone 1120) and the phshneo plasmid. (see U.S. Pat. No. 6,225,042 regarding construction and use of pRMHa plasmid vectors). The human cDNAs were prepared using standard techniques by reverse transcription-PCR using primers derived from the published sequences for HLA-A2.1 from K562 cells, B7.1 from K562 cells, LFA-3 from HL60 cells, ICAM-1 from K562 cells, and CD70 from HLA-A2.1+LCL cells. K562 cells are a human erythroleukemic cell line, HL60 cells are a promyelocytic leukemia human cell line, and HLA-A2.1+LCL cells are an Epstein-Barr virus (EBV)-transformed lymphoblastoid cell line (LCL). Stably transfected cells were selected by culturing in Schneider's medium containing geneticin. Prior to scale up of the cells, expression of the transfected genes is induced by the addition of CuSO4. The level of expression is assessed by flow cytometry using anti-HLA-A2.1, anti-B7.1, anti-LFA-3, anti-ICAM-1 and CD70 antibodies. For efficient in vitro activation of the CD8+ lymphocytes, greater than 30% of the Drosophila cells must express the HLA-A2.1 molecule. The Drosophila cells regularly express each of the molecules at levels between 70-90%. Drosophila aAPC were washed and then incubated at RT for 4 hours with 10 μM of different combinations of mixed peptides or individual peptides (See e.g. U.S. Pat. Nos. 6,225,042, 6,355,479, 6,362,001 and 6,790,662; U.S. Patent Application Publication Nos. 2009/0017000 and 2009/0004142; and International Publication No. WO2007/103009). Purified human CD8+ T cells from HLA-A2 positive donors were then incubated with peptide-loaded Drosophila APC at 37° C., 5% CO2, for 5 days. Human IL-2 (20 U/ml, R&D Systems) and IL-7 (30 U/ml, R&D Systems) were added at day 5 and the activated CD8+ T cells (CTL) were re-stimulated twice, at day 7 and day 15, with non-CD8 adherent cells in a total peripheral blood mononuclear cell (PBMC) preparation from the same donor in the presence of peptides.
# A number of different CTL were generated using CD8+ T cells from different donors and different combinations of mixed peptides, including combinations that contained only one peptide. For example, 24 selected peptides were mixed or used individually to create different combinations of peptide mixtures (PM) or individual peptides (P5 and P14) and produce peptide-loaded Drosophila APC. The resulting peptide-loaded Drosophila APC were incubated with CD8+ T cells from 2 different donors (Donor 1 and Donor 2) to produce 11 different batches of CTL (Donor 1: PM1, PM2, PM3, PM4, and P14; Donor 2: PM1, PM2, PM3, PM4, P5, and P14) (Table 3).
# CTL (Effector) activity was measured with a standard chromium (^51Cr) release assay, with T2 cells (Target) loaded with individual peptides and also with a number of tumor cell lines as target cells (Brunner et al., Immunology. 1968 February; 14(2):181-96). The highest Effector (E) Target (T) ratio (E/T) was 50:1, with 1:5 serial dilutions of CTL (Effector) used to produce a dose response. Before the assay, Target cells (T2 cells at 3×10^6 cells/100 ul in 1×PBS with 4% FCS) were labeled by adding 100 ul of ^51Cr (Perkin Elmer) and incubating at 37° C. for 1 hour. […]
# [2] = molecular target: T1, HLA-A2 molecules in T2 cells (Homo sapiens, UniProt P04439, D140Y/D185E/D98H/E176V/E277Q/G131W/G231S/I119V/I121R/I166T/I218V/L300P/L318F/N151K/N90K/P208A/P217A/Q86G/Q94H/R138H/R169H/T345S); experiment: HLA-A2 Stabilization Assay (peptide binding, T2 cells, flow cytometry); set-up: key: Strong (S); Median (M); Weak (W); None (N)
# T1 construct: HLA-A2 molecules that are synthesized in a transporter associated with antigen processing (TAP)-deficient cell line, T2; host or cells: T2 cells (TAP-deficient human cell line)
# Source text: The assay for peptide binding to class I major histocompatibility complex (MHC/HLA-A2) molecules is based on the ability of peptides to stabilize MHC class I, HLA-A2 molecules that are synthesized in a transporter associated with antigen processing (TAP)-deficient cell line, T2 (ATCC® Number: CRL-1992). The extent of stabilization of MHC class I molecules is directly related to the binding affinity of the added peptides (Townsend et al., Cell. 1990 Jul. 27; 62(2):285-95; Andersen et al., Tissue Antigens. 1999 August; 54(2):185-90).
# For the assay, T2 cells were plated in 96-well V-bottom plates, 100 ul/well RPMI media, at a density of 1×10^6 cells/ml, with final peptide concentrations of 200 uM, 20 uM, 2 uM, 200 nM, 20 nM, 2 nM, and no peptide as negative control. The cells with peptides were incubated for 18 hours at 26° C., 5% CO2. After 18 hours, the plates were transferred to 37° C., 5% CO2 and incubated for an additional 3 hours. The cells in plate were washed once with FACS buffer (PBS, 2.5% FCS, 1% NaN3) and then stained by adding 1 ul/well FITC-labeled mouse anti-human HLA-A2 antibody (BD Pharmingen, Cat. No. 551285), 1 ul/well PI, and then incubating at 4° C. for 30 minutes. After staining, cells were resuspended in 200 ul of FACS buffer and transferred from 96-well plates to racks of 96 microtubes. Samples were run on a FACScan flow cytometer and the data were analysed by using CellQuest software.
# A peptide of Hepatitis B Core protein (HBC) was used as a positive control. The Hepatitis B Core peptide is a potent HLA-A2.1 epitope and consists of residue numbers 18-27 of the core sequence, amino acids […] (SEQ ID NO:73) (Zhang et al. Immunology. 2007, 121(1):105-12).
# [3] = T2 targets loaded with computer predicted peptides
# [4] = CTL generated with truncated peptides, T2 targets loaded with individual peptides
# [5] = truncated versions of P3, P13, P14
substance,measurement,setting,value
FQMEQIVYC (listed as Homo sapiens) [Peptide P14-19],CTL Activity,[1]; [3],M
same,Ability to induce CTL in normal donors,[1],able to induce CTL
same,HLA-A2 Binding,[2]; computer predicted peptides,M
FVPEVSFEL (listed as Homo sapiens) [Peptide P13-18],CTL Activity,[1]; [3],M
same,Ability to induce CTL in normal donors,[1],able to induce CTL
same,HLA-A2 Binding,[2]; computer predicted peptides,S
IDLPGIT (listed as Homo sapiens) [Peptide P14-16],CTL Activity,[1]; [4],W
same,HLA-A2 Binding,[2]; [5],W
IDLPGITR (listed as Homo sapiens) [Peptide P14-14],CTL Activity,[1]; [4],M
same,Ability to induce CTL in normal donors,[1],able to induce CTL
same,HLA-A2 Binding,[2]; [5],W
KLHDAIVEV (listed as Homo sapiens) [Peptide P13-17],CTL Activity,[1]; [3],S
same,Ability to induce CTL in normal donors,[1],able to induce CTL
same,HLA-A2 Binding,[2]; computer predicted peptides,S
KLHDAIVEVV (listed as Homo sapiens) [Peptide P13-16],CTL Activity,[1]; [3],W
same,HLA-A2 Binding,[2]; computer predicted peptides,M
LIDLPGI (listed as Homo sapiens) [Peptide P14-15],CTL Activity,[1]; [4],S
same,Ability to induce CTL in normal donors,[1],able to induce CTL
same,HLA-A2 Binding,[2]; [5],W
LVDLPGM (listed as Homo sapiens) [Peptide P13-13],CTL Activity,[1]; [4],W
same,Ability to induce CTL in normal donors,[1],able to induce CTL
same,HLA-A2 Binding,[2]; [5],M
LVLNLLE (listed as Homo sapiens) [Peptide P3-8],CTL Activity,[1]; [4],M
same,Ability to induce CTL in normal donors,[1],able to induce CTL
same,HLA-A2 Binding,[2]; [5],N
LVYLGHVIYL (listed as Homo sapiens) [Peptide P3-11],CTL Activity,[1]; [3],S
same,Ability to induce CTL in normal donors,[1],able to induce CTL
same,HLA-A2 Binding,[2]; computer predicted peptides,W
NLLELVHLL (listed as Homo sapiens) [Peptide P3-9],Ability to induce CTL in normal donors,[1],able to induce CTL
same,HLA-A2 Binding,[2]; computer predicted peptides,S
SLVLNLLE (listed as Homo sapiens) [Peptide P3-4],HLA-A2 Binding,[2]; [5],N
SLVLNLLEL (listed as Homo sapiens) [Peptide P3],CTL Activity,[1]; [4],M
same,Induction of CTL in two normal donors,[1],induced CTL
same,CTL Activities Median,[1],1/12
same,CTL Activities Strong,[1],5/12
same,CTL Activities Weak,[1],4/12
same,CTL Activities None,[1],2/12
same,HLA-A2 Binding,[2]; [5],M
TLIDLP (listed as Homo sapiens) [Peptide P14-10],HLA-A2 Binding,[2]; [5],N
TLIDLPG (listed as Homo sapiens) [Peptide P14-9],HLA-A2 Binding,[2]; [5],N
TLIDLPGI (listed as Homo sapiens) [Peptide P14-8],HLA-A2 Binding,[2]; [5],N
TLIDLPGIT (listed as Homo sapiens) [Peptide P14-7],HLA-A2 Binding,[2]; [5],N
TLIDLPGITR (listed as Homo sapiens) [Peptide P14-6],HLA-A2 Binding,[2]; [5],N
TLIDLPGITRV (listed as Homo sapiens) [Peptide P14],CTL Activity,[1]; [4],M
same,Induction of CTL in two normal donors,[1],induced CTL
same,CTL Activities Median,[1],1/17
same,CTL Activities Strong,[1],14/17
same,CTL Activities Weak,[1],1/17
same,CTL Activities None,[1],1/17
same,HLA-A2 Binding,[2]; [5],M
TLVDLP (listed as Homo sapiens) [Peptide P13-10],CTL Activity,[1]; [4],S
same,HLA-A2 Binding,[2]; [5],N
TLVDLPG (listed as Homo sapiens) [Peptide P13-9],HLA-A2 Binding,[2]; [5],N
TLVDLPGM (listed as Homo sapiens) [Peptide P13-8],CTL Activity,[1]; [4],M
same,HLA-A2 Binding,[2]; [5],N
TLVDLPGMT (listed as Homo sapiens) [Peptide P13-7],HLA-A2 Binding,[2]; [5],N
TLVDLPGMTK (listed as Homo sapiens) [Peptide P13-6],HLA-A2 Binding,[2]; [5],N
VDLPGMT (listed as Homo sapiens) [Peptide P13-14],HLA-A2 Binding,[2]; [5],N
VDLPGMTK (listed as Homo sapiens) [Peptide P13-12],HLA-A2 Binding,[2]; [5],N
VDLPGMTKV (listed as Homo sapiens) [Peptide P13-2],HLA-A2 Binding,[2]; [5],N
VLNLLEL (listed as Homo sapiens) [Peptide P3-2],HLA-A2 Binding,[2]; [5],N
